Data: US6423703B1, “Use of a porphyrin for producing a medicine reducing the number of eosinophils” (Sephra S.A.R.L., priority 1998, dated 2002)
“Also recorded” adds a separate entry of the source. Read-outs that look alike come from different tables or passages of the source.

Key:
[1] = test system: cerebral ischemia; details: i.p. 50 mg/kg, 24 hrs, adult rats, cited from earlier work
[2] = test system: neonatal jaundice; details: Rodgers et al, 1996; i.p. 25 mg/kg; 21 days; new-born rats; cited from earlier work
[3] = test system: inflammation; details: Nagai et al, 1992; 30 mg/kg; adult rats and mice; cited from earlier work
[4] = Hintz et al, 1990; i.p. 37 mg/kg; 12 hrs; new-born rats; cited from earlier work
[5] = test system: human eosinophils; assay: Apoptosis and survival of purified human eosinophils in culture (cytology, blue trypan); assay type: cell-based; details: for Apoptosis of eosinophils (percentage of apoptotic eosinophils): ZnPP-IX 10 μM, IL-5 10 pM where present, RPMI 1640, average of three experiments; for Number of apoptotic cells: in the presence of IL-5
Protocol: A leukocyte-rich suspension is obtained after sedimentation of whole blood, anticoagulated in the presence of dextran T500 (4.5%). 35 ml of aliquots are added to 15 mi of Ficoll. After centrifugation (30 min, 1000×g) the mononucleated cells at the interface are eliminated. The pellet which contains neutrophils, eosinophils and the corpuscles is washed and subjected to an osmotic shock in order to eliminate the corpuscles. The magnetic cellular separation system (MACS; Miltenyi Biotec) is used to purify the eosinophils by negative selection [Hansel et al, 1991, J. Immunol. Meth. 145: 105-110]. Magnetic particles anti-CD16 (1 μl/1×10^6 cells) are added to the suspension of neutrophils and eosinophils at 4° C. and kept at this temperature for 40 minutes with several placement gain in solution. The suspension is then added at the summit of the separation column in the presence of a magnetic field, the tap open at the base. 30 ml of PBS/FCS is passed through the column and the effluent is recovered. The magnetically marked cells (neutrophils) remain in the column; the unmarked cells (eosinophils) are recovered in the effluent and washed. PBS=Phosphate buffered saline FCS=Foetal calf serum
The freshly purified eosinophils are again placed in suspension (1.5-3×10^5 cells per ml) in RPMI 1640 (Gibco BRL) supplemented with 0.1 mM non essential amino acids, 100 U/ml of penicillin, 10 μg of streptomycine, 10 mM of HEPES, 2 mM of glutamine and 10% FCS. The aliquots of 160 μl of cellular suspension are deposited in each of the wells of a 96 well tray (Costar) containing 20 μl of IL-5 as survival factor. Twenty μl of the substance to be studied in a precise concentration or 20 μl of the medium on its own as a control are deposited in the corresponding wells. The cellular viability and the percentage of apoptotic eosinophils are counted at 24 hrs and 48 hrs with the aid of the methods below.
Blue trypan makes it possible to evaluate cellular viability. The cellular suspension is added to an equal volume of blue trypan at 0.1% in PBS. The abso!ute number of cells excluding the blue trypan (=“living” cells) per unit volume is obtained by counting the cells in a hemocytometer (Mallassez).
Cytology: makes it possible to visualise the morphological modification of the eosinophils during apoptosis in vitro. The cellular suspension is cyto-centrifuged then the strips are coloured (kit RAL 555, Prolabo). The percentage of apoptotic cells is established by optical microscope according to their characteristic morphology (pyknotic nucleus with condensed chromatine or without a nucleus, reduction in the cells diameter, cytoplasmic condensation). The freshly isolated eosinophils from the blood circulation have a characteristic morphology in optical microscopy: a granular cytoplasm coloured red-orange by eosin and a very often bivobed nucleus. In the absence of survival factors such as IL-5, IL-3 or GM-CSF, the first morphological signs of apotosis of the eosinophils appear. The chromatin condenses and the nucleus of the eosinophil takes on a pyknotic appearance. This pyknotic appearance of the nucleus, standard in the course of apoptosis, is however rarely observed in the eosinophil, perhaps because of its brevity. Another morphological sign characteristic of apoptosis is the reduction of cellular volume which is very marked in the eosinophil (Beauvais et al, 1995, J, Leukoc. Biol. 57: 851-855). After 48 hours of incubation, the nuclear structures have disappeared in the majority of eosinophils which now appear in the form of anucleated vesicles.

[6] = test system: steroidogenesis; details: Trakshel et al, 1992; s.c. 31 mg/kg (2x −4j); 7 days; rats; cited from earlier work
[7] = test system: eosinophils; assay: TUNEL method, DNA fragmentation in situ in eosinophils; assay type: cell-based, human; details: IL-5 (lpM) and ZnPP-IX (10 μM); 48 hours
Protocol: The TUNEL method makes it possible to visualise the apoptotic nuclei containing the fragmented DNA. Its assumption rests on the enzymatic fixation of a fluorescent marker (Fluoresceine-12-dUTP) at the free extremities of the DNA (3′-OH DNA). This technique consists of the cells in each well being cytocentrifuged then fixed by formaldehyde solution at 4% (25 min at 4° C.). After washing, the preparations are made permeable by a solution of Triton X-100 0.2% (5 min at 20° C.). The cells are incubated (1 hr at 37° C.) in the presence of a solution containing fluoresceine-12-dUTP and the enzyme TdT (terminal deoxynucleotidal transferase). The reaction is […] in a stopping solution. After mounting under a coverglass, the preparation is visualized under the fluorescence microscope (Apoptosis Detection System Fluorescein. Promega, Madison, Wis., USA).
In the presence of IL-5 and the control solution, there is no marking of the nuclei.

[8] = literature in vivo studies; rats, mice, monkeys; i.v., i.p., sub-cutaneous; cited from earlier work
[9] = test system: neonatal jaundice; details: Qato et Maines, 1985; s.c. 25 mg/kg; 12 days; Rhesus monkeys and cynomolgus; cited from earlier work
[10] = test system: intestinal, splenic and hepatic hemoxygenesis; details: Vrema et al, 1988; p.o. 25 mg/kg; 6 hrs; new-born and adult rats; cited from earlier work
[11] = test system: hyperbilirubinemia due to iatrogenic hemolysis; details: Vreman et al, 1990; i.v. 25 mg/kg; 24 hrs; Rhesus monkeys (new-born); cited from earlier work
[12] = test system: peritoneal hypereosinophilia; assay: Ovalbumin-induced peritoneal hypereosinophilia in mice; assay type: in vivo, Swiss mice; details: 0.1 ml of 1 mM (3.1 mg/kg) intraperitoneal with ovalbumin challenge; 48 hrs; two mice
Protocol: Swiss mice (about 20 g) are immunised sub cutaneously twice (with a 6 day interval) with 100 μg of ovalbumin in 0.4 ml of a suspension at 4 mg/ml of Al(OH)3 in NaCl 0.9%. One week after the second injection, 0.2 ml of ovalbumin at 5 μg/ml of ovalbumin are administered by intraperitoneal injection. The control mice are injected with the vehicle only.
The mice are killed at different times (overdose of ether) and—after dissection —undergo a peritoneal wash with 6ml of NaCl 0.9% (heparinised). After slight massage, the liquid of the wash is collected and the cellular concentration is measured in a hemocytometer. Cytocentrifugation strips are made and coloured by the Wright colorant (kit RAL 555, Prolabo, France). The differential count of mononucleated (monocytes+macrophages+lymphocytes), eosinophil and neutrophil cells is carried out objectively×100 by immersion in oil. During the peritoneal washing of the control mice, the residual cells are essentially macrophages, whereas during the peritoneal washing of mice immunised by ovalbumin, an inflammatory infiltrate with the apparition of polynuclear eosinophils and neutrophils is observed.
The ZnPP-IX is Injected at the same time as the second injection of ovalbumin (OVA). […] The results are represented by FIGS. 4, 5 and 6. Each column represents the average for two mice at 48 hrs.

[13] = test system: neonatal jaundice; details: Rodgers et al, 1990; i.v. 25 mg/kg; 26 hrs; Rhesus monkeys (new-born); cited from earlier work
[14] = −20° C., protected from light and humidity; cited from earlier work
[15] = test system: eosinophils; details: in vitro; cited from earlier work

## C=CC1=C(C)c2cc3[n-]c(cc4[n-]c(cc5nc(cc1n2)C(C)=C5C=C)c(C)c4CCC(=O)O)c(CCC(=O)O)c3C.[Zn+2] [ZnPP-IX, Zinc-Protoporphyrin IX]
[1]; Kadoya et al, 1995
  Pharmacological effects: Protects from cerebral ischemia
[1]; Zhao et al, 1996
  Pharmacological effects: Protects from cerebral ischemia
[2]
  Pharmacological effects: Reduces neonatal jaundice
[3]
  Pharmacological effects: Anti-inflammatory effect
[4]
  Pharmacological effects (phototoxicity): No phototoxic effect
[5]; 24 hrs
  Apoptosis of eosinophils (percentage of apoptotic eosinophils): 45 ± 15
  Number of apoptotic cells: very small
[5]; 48 hrs
  Apoptosis of eosinophils (percentage of apoptotic eosinophils): 99 ± 1
  Number of apoptotic cells: practically all the cells are apoptotic
[5]; average of two representative experiments
  Activity on the survival and apoptosis of the eosinophils (FIG. 2): dosedependant activity
[5]; in stronger concentrations of IL5 (10 pM)
  Induction of the apoptosis of eosinophils: induces the apoptosis of eosinophils
[5]; in the absence of IL-5
  Effect on apoptosis of the eosinophils: accelerates the apoptosis
[5]; time 0
  Apoptosis of eosinophils (percentage of apoptotic eosinophils): 0
[6]
  Pharmacological effects (steroidogenesis): No effect on steroidogenesis
[7]
  Marking of apoptotic nuclei by the TUNEL method: appear marked
[8]
  Toxicity in animals: No toxicity has been reported; also recorded: No harmful effects were revealed
[9]
  Pharmacological effects: Reduces neonatal jaundice
[10]
  Pharmacological effects (inhibition of intestinal, splenic and hepatic hemoxygenesis): No inhibitory effect on intestinal,
[11]
  Pharmacological effects (hyperbilirubinemia due to iatrogenic hemolysis): Reduces hyperbilirubinemia due to
[12]
  Inflammatory infiltrate in peritoneal wash: reduces the inflammatory infiltrate
  Number of eosinophils in the tissues: large decrease
[13]
  Pharmacological effects: Reduces neonatal jaundice
[14]
  Storage stability: at least 1 year

## CCN(CC)CC(=O)Nc1c(C)cccc1C [lidocaine]
[15]
  Survival of eosinophils: reduce the survival of eosinophils

## IL-5: Cytokine used as survival factor for the eosinophils in culture
[5]; 24 hrs
  Apoptosis of eosinophils (percentage of apoptotic eosinophils): 2 ± 2
[5]; 48 hrs
  Apoptosis of eosinophils (percentage of apoptotic eosinophils): 2 ± 1
[5]; time 0
  Apoptosis of eosinophils (percentage of apoptotic eosinophils): 0
